Test results published in ChEMBL document CHEMBL5233262, “Anti-inflammatory activity of naturally occuring diarylheptanoids - A review” (Bioorg Med Chem, 2021).
In brackets after ≈: the same amount, converted by molar mass. Values belong to the molecule of their own block, whether it stands above or below them.

Legend:
[1] = Antioxidant activity assessed as hydroxyl radical scavenging activity; type: functional
[2] = Antioxidant activity assessed as DPPH radical scavenging activity incubated for 30 mins by spectrophotometric analysis; type: functional
[3] = Antioxidant activity assessed as ABTS radical scavenging activity measured after 6 mins; type: functional
[4] = Antioxidant activity assessed as DPPH radical scavenging activity; type: functional
[5] = tested on: J774.A1; assay: Antiinflammatory activity in mouse J774.A1 cells assessed as inhibition of LPS-induced NO production incubated for 24 hrs by Griess reagent based analysis; type: functional, cell-based; conditions: J774.A1, 24 h
[6] = tested on: RAW264.7; assay: Antiinflammatory activity in mouse RAW264.7 cells assessed as inhibition of LPS-induced NO production preincubated for 1 hrs followed by LPS stimulation and measured after 24 hrs by Griess reagent based analysis; type: functional, cell-based
[7] = tested on: RAW264.7; assay: Antiinflammatory activity in mouse RAW264.7 cells assessed as inhibition of LPS-induced NF-kappaB activation incubated for 24 hrs by SEAP microplate reader analysis; type: functional, cell-based; conditions: RAW264.7, 24 h
[8] = Antioxidant activity assessed as nitroblue tetrazolium superoxide radical scavenging activity incubated for 10 mins by spectrophotometric analysis; type: functional
[9] = tested on: RAW264.7; assay: Antiinflammatory activity against mouse RAW264.7 cells assessed as inhibition of IFN-gamma and LPS-induced COX2 production preincubated for 2 hrs followed by IFN-gamma and LPS stimulation and measured after 16 hrs by spectrophotometric analysis; type: functional, cell-based
[10] = tested on: RAW264.7; assay: Antiinflammatory activity in mouse RAW264.7 cells assessed as inhibition of LPS-induced TNFalpha production preincubated for 1 hr followed by LPS stimulation and measured after 18 hrs by immunoassay; type: functional, cell-based
[11] = tested on: MCF-10A; assay: Antiinflammatory activity in human MCF-10A cells assessed as inhibition of TPA-induced COX2 production at 12.5 to 100 uM incubated for 4 hrs by Western blot analysis; type: functional; conditions: dose 12.5-100 µM
[12] = tested on: RAW264.7; assay: Antiinflammatory activity in mouse RAW264.7 cells assessed as inhibition of IFN-gamma and LPS-induced NO production incubated for 24 hrs by Griess assay; type: functional, cell-based; conditions: RAW264.7, 24 h
[13] = tested on: RAW264.7; assay: Antiinflammatory activity in mouse RAW264.7 cells assessed as inhibition of LPS-induced NO production preincubated for 0.5 hrs followed by LPS stimulation and measured after 24 hrs by Griess reagent based analysis; type: functional, cell-based
[14] = tested on: RAW264.7; assay: Antiinflammatory activity in mouse RAW264.7 cells assessed as inhibition of IFN-gamma and LPS-induced NO production incubated for 20 hrs by Griess assay; type: functional, cell-based; conditions: RAW264.7, 20 h
[15] = tested on: RAW264.7; assay: Antiinflammatory activity in mouse RAW264.7 cells assessed as inhibition of LPS-induced NO production incubated for 24 hrs by Griess reagent based analysis; type: functional, cell-based; conditions: RAW264.7, 24 h
[16] = tested on: RAW264.7; assay: Antiinflammatory activity in mouse RAW264.7 cells assessed as inhibition of LPS-induced NO production incubated for 20 hrs by Griess method; type: functional, cell-based; conditions: RAW264.7, 20 h
[17] = tested on: Mus musculus; assay: Antiinflammatory activity in ICR mouse model of TPA-induced ear edema assessed as inhibition of ear inflammation at 1 mg,TOP for 30 mins followed by TPA addition and measured after 6 hrs; type: functional; conditions: time 390 min, 6.5 h
[18] = tested on: RAW264.7; assay: Cytotoxicity against mouse RAW264.7 cells assessed as reduction in cell viability at 30 uM by MTT assay; type: toxicity, cell-based; conditions: raw264.7, 30 µM
[19] = tested on: RAW264.7; assay: Antiinflammatory activity in mouse RAW264.7 cells assessed as inhibition of LPS-induced NO production at 30 uM preincubated for 0.5 hrs followed by LPS stimulation and measured after 24 hrs by Griess reagent based analysis; type: functional; conditions: time 24.5 hrs
[20] = tested on: Rattus norvegicus; assay: Antiinflammatory activity against Freund's complete adjuvant-induced arthritic Wistar rat model assessed as reduction in paw volume at 5 mg/kg,po measured after 28 days; type: functional; set-up: scale not given: the % may be the effect or the level left; conditions: time 28 day
[21] = tested on: Rattus norvegicus; assay: Antiinflammatory activity against Freund's complete adjuvant-induced arthritic Wistar rat model assessed as reduction in IL-1beta level at 5 mg/kg,po measured after 28 days by ELISA; type: functional; set-up: scale not given: the % may be the effect or the level left; conditions: time 28 day
[22] = tested on: Rattus norvegicus; assay: Antiinflammatory activity against Freund's complete adjuvant-induced arthritic Wistar rat model assessed as reduction in IL-6 level at 5 mg/kg,po measured after 28 days by ELISA; type: functional; set-up: scale not given: the % may be the effect or the level left; conditions: time 28 day
[23] = tested on: Rattus norvegicus; assay: Antiinflammatory activity in Wistar rat model of carrageenan-induced paw edema assessed as reduction in paw thickness at 10 mg/kg,po and measured after 5 hrs; type: functional; set-up: scale not given: the % may be the effect or the level left
[24] = tested on: Rattus norvegicus; assay: Antiinflammatory activity against Freund's complete adjuvant-induced arthritic Wistar rat model assessed as reduction in TNF-alpha level at 5 mg/kg,po measured after 28 days by ELISA; type: functional; set-up: scale not given: the % may be the effect or the level left; conditions: time 28 day
[25] = tested on: J774.1; assay: Antiinflammatory activity in mouse J774.1 cells assessed as inhibition of LPS-induced NO production at 10 microg/ml incubated for 48 hrs by Griess reagent based analysis; type: functional
[26] = tested on: Rattus norvegicus; assay: Antiinflammatory activity in rat model of carrageenan-induced hind paw edema assessed as reduction in paw thickness at 100 mg/kg,ip 30mins before carrageenin exposure and measured after 3 hrs; type: functional; set-up: scale not given: the % may be the effect or the level left
[27] = tested on: Mus musculus; assay: Antiinflammatory activity in ICR mouse model of thioacetamide-induced hepatotoxicity assessed as reduction in TNF-alpha expression at 1 mg/kg,ip pretreated with compound followed by TA induction and measured after 24 hrs by RT-PCR analysis; type: functional; set-up: scale not given: the % may be the effect or the level left
[28] = tested on: Rattus norvegicus; assay: Antiinflammatory activity in rat model of ethyl phenylpropiolate-induced ear edema assessed as reduction in ear thickness administered topically and measured after 30 mins; type: functional; conditions: 0.5 h
[29] = tested on: Rattus norvegicus; assay: Antiinflammatory activity in rat model of ethyl phenylpropiolate-induced ear edema assessed as reduction in ear thickness administered topically and measured after 1 hr; type: functional

SMILES: O=C(O)Cc1ccccc1Nc1c(Cl)cccc1Cl [DICLOFENAC]
Activity [20]: 28.3% | Activity [21]: 7% | Activity [22]: 2.5% | Activity [23]: 39.5% | Activity [24]: 47%

SMILES: COc1cc(O)c([C@H]2C[C@H](CCc3ccc(O)cc3)O[C@@H](c3ccc(O)cc3)[C@H]2O)c(O)c1C(=O)/C=C/c1ccc(O)cc1
inhibition at 10 µg/mL [25]: 37.6%

SMILES: OC(/C=C/C=C/c1ccccc1)CCc1ccccc1 (configuration not stated)
Activity [26]: 39% | Activity [27]: 53% | ID50 [28]: 129 µg | ID50 [29]: 312 µg

Now from value to molecule, other results behind:

IC50 [1]: 47 µg/mL (≈ 267 µM) | IC50 [2]: 24.8 µM | IC50 [3]: 23.3 µM | IC50 [4]: 58 µg/mL (≈ 329 µM) | IC50 [5]: > 100 µM
SMILES: O=C1O[C@H]([C@@H](O)CO)C(O)=C1O [ASCORBIC ACID]

IC50 [6]: 21.3 µM | IC50 [7]: 9.9 µM | IC50 [8]: 19 µM | IC50 [2]: 26 µM | IC50 [9]: 25.7 µg/mL (≈ 74.2 µM) | IC50 [10]: 23.7 µM | IC50 [12]: 44.3 µg/mL (≈ 128 µM) | IC50 [13]: 30 µM | IC50 [14]: 3.8 µM | IC50 [15]: 19.3 µM | IC50 [16]: 17.8 µM
SMILES: O=C(CCc1ccc(O)c(O)c1)C[C@@H](O)CCc1ccc(O)c(O)c1 [HIRSUTANONOL]
inhibition (INH) [11]: 22%

IC50 [6]: 27.8 µM | IC50 [2]: 44.4 µM
SMILES: Oc1ccc(CCCC[C@@H](O)CCc2ccc(O)cc2)cc1
ID50 [17]: 0.66 mg | Activity [18]: 52% | inhibition at 30 µM [19]: 29%
